Consider 13 compounds from PubChem BioAssay (NCI).

Test systems include COLO 205 colon; UACC-257 melanoma; RPMI-8226 leukemia; MALME-3M melanoma; HS 578T breast; HOP-62 NSCLC; MDA-MB-231 breast; K-562 leukemia; EKVX NSCLC; T-47D breast.
Test in all cases: inhibition of tumour cell growth, NCI panel, 48 h

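Where inhibition never reached the appropriate level, the endpoint shown equals the highest concentration tested. Otherwise, values were interpolated linearly from a five-concentration, 48-hour dose response in 96-well plates. Abbreviation: GI50, concentration required for 50% inhibition of growth. TGI: concentration producing complete growth inhibition.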 A value given as a limit tells only on which side of the number the result lay.

For the compound `Cc1ccc(-c2nc3nc(-c4ccc(F)cc4)nc(N4CCNCC4)c3o2)cc1`, the GI50 with COLO 205 colon was 2.1 µM; with UACC-257 melanoma it was 18.4 µM; in the test with RPMI-8226 leukemia, 2.36 µM; in the test on MALME-3M melanoma, 6.94 µM; in the test on HS 578T breast, 2.06 µM; in the test with HOP-62 NSCLC it was 16.4 µM. Besides, the GI50 with MDA-MB-231 breast is 1.86 µM; with K-562 leukemia it was 1.46 µM; with EKVX NSCLC it was 4.53 µM; in the test with T-47D breast it was 2.3 µM. Further, the TGI in the test on COLO 205 colon came to 4.64 µM; in the test with UACC-257 melanoma, 37.6 µM; in the test with RPMI-8226 leukemia, 5.49 µM; in the test on MALME-3M melanoma it was 19.6 µM; in the test with HS 578T breast, 5.12 µM; in the test on HOP-62 NSCLC it was 37.9 µM. Besides, the TGI in the test with MDA-MB-231 breast was 3.63 µM; in the test on K-562 leukemia it was 5.44 µM; in the test on EKVX NSCLC it was 17.3 µM; with T-47D breast it was 6.92 µM.

As to `CCN1CCC(CC(=O)Nc2n[nH]c3nnc(-c4cccc(F)c4F)cc23)CC1`, the GI50 in the test with COLO 205 colon was 22.3 µM; in the test on UACC-257 melanoma it was above 25 µM; in the test with RPMI-8226 leukemia, above 25 µM; in the test on MALME-3M melanoma, above 25 µM; in the test with HS 578T breast, above 19.9 µM; in the test on HOP-62 NSCLC it was above 25 µM. Moreover, the GI50 in the test with MDA-MB-231 breast, in the test on K-562 leukemia, in the test with EKVX NSCLC and in the test on T-47D breast was above 25 µM in each case. The TGI in the test on COLO 205 colon, in the test with UACC-257 melanoma, in the test with RPMI-8226 leukemia, in the test with MALME-3M melanoma, in the test on HS 578T breast and with HOP-62 NSCLC was above 25 µM throughout. Further, the TGI in the test with MDA-MB-231 breast, with K-562 leukemia, with EKVX NSCLC and in the test with T-47D breast was above 25 µM each time.

For `CCCCCCC1N=C(N)N=C(N)N1c1cccc(Cl)c1` (stereo unspecified), the GI50 in the test on COLO 205 colon is 1.44 µM; in the test with UACC-257 melanoma, 6.37 µM; in the test with RPMI-8226 leukemia, 0.904 µM; in the test with MALME-3M melanoma, 0.765 µM; with HS 578T breast it was 0.871 µM; with HOP-62 NSCLC, 0.436 µM. The GI50 with MDA-MB-231 breast is 1.93 µM; in the test with K-562 leukemia it was 0.841 µM; with EKVX NSCLC, 0.307 µM; in the test with T-47D breast it was 6.19 µM. Further, the TGI was determined as 18.4 µM with COLO 205 colon; 29.5 µM with UACC-257 melanoma; 22 µM in the test with RPMI-8226 leukemia; 15.6 µM with MALME-3M melanoma; 9.22 µM in the test on HS 578T breast; 10.9 µM in the test with HOP-62 NSCLC. Moreover, the TGI in the test with MDA-MB-231 breast turned out to be 22.5 µM; in the test with K-562 leukemia, 24.6 µM; in the test on EKVX NSCLC, 19.3 µM; in the test with T-47D breast it was 23.1 µM.

On to `CC(=O)OCC12CN(C#N)C3C4COC(CC41)C1(C(=O)N(C)c4ccccc41)C32` (stereo unspecified), for which the TGI in the test on COLO 205 colon was 35.8 µM; with UACC-257 melanoma, 51.8 µM; in the test on RPMI-8226 leukemia it was above 100 µM; in the test with MALME-3M melanoma it was 54.1 µM; with HS 578T breast it was 55.9 µM; in the test on HOP-62 NSCLC, 58.6 µM. Moreover, the TGI is 64.9 µM in the test on MDA-MB-231 breast, above 100 µM in the test with K-562 leukemia, 88.9 µM with EKVX NSCLC and 62.7 µM with T-47D breast.

As for `N#CC(C#N)=CNCCN1CCN(C=C(C#N)C#N)CC1`, the TGI with COLO 205 colon, in the test on UACC-257 melanoma, in the test on RPMI-8226 leukemia, with MALME-3M melanoma, in the test on HS 578T breast and in the test on HOP-62 NSCLC was above 100 µM each time. Moreover, the TGI in the test with MDA-MB-231 breast, in the test on K-562 leukemia, in the test with EKVX NSCLC and in the test with T-47D breast was above 100 µM each time.

For the compound `O=C(CN1CCN(Cc2ccccc2Cl)CC1)NC1CC(=O)c2c(Br)sc(Br)c21` (stereo unspecified), the GI50 in the test on COLO 205 colon is 21.2 µM; with UACC-257 melanoma it was 22.3 µM; in the test with RPMI-8226 leukemia, 16.6 µM; in the test with MALME-3M melanoma, 21.6 µM; with HS 578T breast, 29.4 µM; in the test on MDA-MB-231 breast it was 21.1 µM. Moreover, the GI50 in the test with K-562 leukemia was 29.6 µM; in the test on EKVX NSCLC, 21.7 µM; in the test with T-47D breast it was 21.6 µM. The TGI came out at 38.4 µM in the test on COLO 205 colon; 44 µM in the test with UACC-257 melanoma; 38.5 µM in the test with RPMI-8226 leukemia; 43.8 µM with MALME-3M melanoma; 71.5 µM with HS 578T breast; 39.8 µM with MDA-MB-231 breast. The TGI in the test on K-562 leukemia was above 100 µM; in the test on EKVX NSCLC, 42 µM; in the test on T-47D breast, 43.9 µM.

`CCn1c(-c2nonc2N)nc2c(C#CC(C)(C)O)ncc(OC3CCNCC3)c21`: the GI50 in the test with COLO 205 colon is 4.89 µM; with UACC-257 melanoma it was above 25 µM; with RPMI-8226 leukemia, above 25 µM; in the test on MALME-3M melanoma, above 25 µM; in the test on HS 578T breast it was 2.11 µM; in the test with HOP-62 NSCLC, above 16.4 µM. The GI50 in the test with MDA-MB-231 breast is 20 µM; in the test on K-562 leukemia, 11.1 µM; in the test with EKVX NSCLC, above 25 µM; in the test on T-47D breast it was 1.21 µM. Also, the TGI in the test on COLO 205 colon is above 21.9 µM; in the test on UACC-257 melanoma it was above 25 µM; with RPMI-8226 leukemia it was above 25 µM; in the test on MALME-3M melanoma, above 25 µM; with HS 578T breast, above 25 µM; in the test on HOP-62 NSCLC it was above 25 µM. In addition, the TGI in the test with MDA-MB-231 breast, with K-562 leukemia, with EKVX NSCLC and in the test with T-47D breast was above 25 µM in each case.

For the compound `CN1CCN(Cc2ccc(NC(=O)c3cncc(C#Cc4c(N)ncc5ccc(C#N)cc45)c3)cc2C(F)(F)F)CC1`, the GI50 with COLO 205 colon was 0.121 µM; in the test on UACC-257 melanoma, 0.483 µM; with RPMI-8226 leukemia, 1.01 µM; in the test on MALME-3M melanoma it was 0.0477 µM; with HS 578T breast it was 0.741 µM; with HOP-62 NSCLC, 0.849 µM. Moreover, the GI50 in the test on MDA-MB-231 breast was 0.525 µM; in the test with K-562 leukemia, 0.005 µM; with EKVX NSCLC it was 0.791 µM; in the test with T-47D breast, 1.23 µM. In addition, the TGI in the test with COLO 205 colon worked out at 50 µM; in the test with UACC-257 melanoma, 1.78 µM; in the test with RPMI-8226 leukemia, 2.47 µM; with MALME-3M melanoma it was 0.331 µM; with HS 578T breast it was 9.45 µM; in the test with HOP-62 NSCLC it was 1.92 µM. Also, the TGI came to 1.23 µM in the test on MDA-MB-231 breast, 0.266 µM with K-562 leukemia, 1.57 µM in the test with EKVX NSCLC and 5.85 µM with T-47D breast.

Consider `COc1cc2c3c(n(CCCN4CCNCC4)c(=O)c2cc1OC)-c1cc2c(cc1C3=O)OCO2`, for which the GI50 in the test on COLO 205 colon was 3.06 µM; with UACC-257 melanoma, 7.08 µM; in the test on RPMI-8226 leukemia it was 0.16 µM; in the test on MALME-3M melanoma, 2.55 µM; in the test on HS 578T breast, 1.26 µM; in the test with HOP-62 NSCLC, 0.0265 µM. In addition, the GI50 with MDA-MB-231 breast is 0.803 µM; in the test on K-562 leukemia, 0.111 µM; in the test on EKVX NSCLC, 8.51 µM; with T-47D breast it was 2.54 µM. In addition, the TGI in the test on COLO 205 colon is 14 µM; with UACC-257 melanoma, 15.5 µM; in the test on RPMI-8226 leukemia, 1.63 µM; with MALME-3M melanoma it was 12.2 µM; in the test on HS 578T breast, 16.2 µM; in the test with HOP-62 NSCLC it was 0.138 µM. For the same compound, the TGI with MDA-MB-231 breast was determined as 2.23 µM; in the test with K-562 leukemia, 18.3 µM; in the test with EKVX NSCLC it was 17.2 µM; with T-47D breast it was 21.3 µM.

For `O=C(O)CCCCn1ccc(=O)[nH]c1=O`, the TGI in the test on COLO 205 colon, with UACC-257 melanoma, in the test with RPMI-8226 leukemia, with MALME-3M melanoma, in the test with HS 578T breast and in the test on HOP-62 NSCLC was above 100 µM throughout. The TGI with MDA-MB-231 breast, in the test with K-562 leukemia, in the test with EKVX NSCLC and with T-47D breast was above 100 µM throughout.

In the case of `COC(=O)C1=COC2OC3C(C(C)O)C(=O)OC34C=CC1C24` (stereo unspecified), the TGI is above 100 µM in the test with COLO 205 colon; above 100 µM in the test on UACC-257 melanoma; 90.8 µM in the test with RPMI-8226 leukemia; above 100 µM in the test with MALME-3M melanoma; above 100 µM in the test with HS 578T breast; above 100 µM in the test on MDA-MB-231 breast. Moreover, the TGI in the test with K-562 leukemia, with EKVX NSCLC and with T-47D breast was above 100 µM in each case.

As to `O=C([O][Hg][c]1ccccc1)c1ccccc1`, the GI50 with COLO 205 colon was 1.89 µM; with UACC-257 melanoma it was 1.38 µM; in the test on RPMI-8226 leukemia, 1.23 µM; with MALME-3M melanoma, 1.77 µM; with HS 578T breast, 1.1 µM; in the test with HOP-62 NSCLC, 2.16 µM. Besides, the GI50 is 1.86 µM with MDA-MB-231 breast, 1.11 µM in the test with K-562 leukemia and 0.475 µM in the test on T-47D breast. In addition, the TGI in the test on COLO 205 colon was determined as 3.35 µM; in the test with UACC-257 melanoma, 3.03 µM; in the test with RPMI-8226 leukemia, 4.56 µM; in the test with MALME-3M melanoma, 3.39 µM; in the test with HS 578T breast, 5.87 µM; with HOP-62 NSCLC, 4.84 µM. Moreover, the figures for the TGI in the test with MDA-MB-231 breast, in the test with K-562 leukemia and in the test with T-47D breast were 4.62 µM, 4.74 µM and 2.43 µM, respectively.

Consider `C/C(=N\NC(=S)N1CCN(c2ccccn2)CC1)c1ccccn1`, for which the TGI in the test with RPMI-8226 leukemia amounted to 23.6 µM; with MALME-3M melanoma, 12.8 µM; in the test with HS 578T breast, 27.9 µM; with HOP-62 NSCLC, 12.7 µM; with MDA-MB-231 breast, 18.5 µM; in the test on K-562 leukemia, 0.0341 µM. Besides, the TGI in the test on T-47D breast was 7.37 µM. For the same compound, the GI50 in the test on MALME-3M melanoma was 0.406 µM; with HS 578T breast, 1.28 µM; with HOP-62 NSCLC, 0.0475 µM; in the test on EKVX NSCLC, 0.000138 µM.
